Experiments:
[1] = Inhibition of PI3Kalpha in human HCT116 cells coexpressing PI3Kalpha H1047R mutant assessed as growth inhibition after 24 hrs by MTT assay
[2] = Inhibition of EGFR in human MDA231 cells assessed as growth inhibition after 24 hrs by MTT assay

CC(O)c1ccc(NC(=O)c2cc3ccccc3[nH]2)cc1 (stereo unspecified)
IC50 [1]: 37 µM
IC50 [2]: 35 µM

O=C(Nc1cccc(C(O)c2ccccc2)c1)c1cc2ccccc2[nH]1 (stereo unspecified)
IC50 [1]: 19 µM
IC50 [2]: 15 µM

CC(=O)c1ccc(NC(=O)c2cc3ccccc3[nH]2)cc1
IC50 [1]: 61 µM
IC50 [2]: 50 µM

CC(=O)c1cccc(NC(=O)c2cc3ccccc3[nH]2)c1
IC50 [1]: 64 µM
IC50 [2]: 57 µM

O=C(c1ccccc1)c1ccc(NC(=O)c2cc3ccccc3[nH]2)cc1
IC50 [1]: 54 µM
IC50 [2]: 49 µM

O=C(Nc1ccc(C(O)c2ccccc2)cc1)c1cc2ccccc2[nH]1 (stereo unspecified)
IC50 [1]: 44 µM
IC50 [2]: 38 µM

O=C(c1ccccc1)c1cccc(NC(=O)c2cc3ccccc3[nH]2)c1
IC50 [1]: 55 µM
IC50 [2]: 45 µM

CC(O)c1cccc(NC(=O)c2cc3ccccc3[nH]2)c1 (stereo unspecified)
IC50 [1]: 38 µM
IC50 [2]: 34 µM

Reference: BindingDB's records for doi:10.1016/j.bmcl.2016.04.011 (The University of Jordan, 2016)
